Measurements published in PubChem BioAssay (NCI).
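A five-concentration, 48-hour dose response in 96-well plates underlies each endpoint, interpolated linearly between surrounding concentrations. Abbreviation: GI50, concentration required for 50% inhibition of growth. TGI denotes the concentration required for complete inhibition of growth.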

How the values were obtained:
Experiment in all cases: NCI-60 cell line screen, 48 h
[1] = test system: 786-0 renal
[2] = test system: A498 renal
[3] = test system: A549 NSCLC
[4] = test system: ACHN renal
[5] = test system: BT-549 breast
[6] = test system: CAKI-1 renal
[7] = test system: CCRF-CEM leukemia
[8] = test system: COLO 205 colon
[9] = test system: DU-145 prostate
[10] = test system: EKVX NSCLC
[11] = test system: HCC-2998 colon
[12] = test system: HCT-116 colon
[13] = test system: HCT-15 colon
[14] = test system: HL-60(TB) leukemia
[15] = test system: HOP-62 NSCLC
[16] = test system: HOP-92 NSCLC
[17] = test system: HS 578T breast
[18] = test system: HT29 colon
[19] = test system: IGROV1 ovarian
[20] = test system: K-562 leukemia
[21] = test system: KM12 colon
[22] = test system: LOX IMVI melanoma
[23] = test system: M14 melanoma
[24] = test system: MALME-3M melanoma
[25] = test system: MCF7 breast
[26] = test system: MDA-MB-231 breast
[27] = test system: MDA-MB-435
[28] = test system: MOLT-4 leukemia
[29] = test system: NCI-H226 lung
[30] = test system: NCI-H23 lung
[31] = test system: NCI-H460 lung
[32] = test system: NCI-H522 lung
[33] = test system: NCI/ADR-RES ovarian
[34] = test system: OVCAR-3 ovarian
[35] = test system: OVCAR-4 ovarian
[36] = test system: OVCAR-5 ovarian
[37] = test system: OVCAR-8 ovarian
[38] = test system: PC-3 prostate
[39] = test system: RPMI-8226 leukemia
[40] = test system: RXF 393 renal
[41] = test system: SF-268 CNS
[42] = test system: SF-295 CNS
[43] = test system: SF-539 CNS
[44] = test system: SK-MEL-2 melanoma
[45] = test system: SK-MEL-28 melanoma
[46] = test system: SK-MEL-5 melanoma
[47] = test system: SK-OV-3 ovarian
[48] = test system: SN12C renal
[49] = test system: SNB-19 CNS
[50] = test system: SNB-75 CNS
[51] = test system: SR leukemia
[52] = test system: SW-620 colon
[53] = test system: T-47D breast
[54] = test system: TK-10 renal
[55] = test system: U251 CNS
[56] = test system: UACC-257 melanoma
[57] = test system: UACC-62 melanoma
[58] = test system: UO-31 renal

O=C1OCC2=C1C(c1ccc(Cl)c(Cl)c1)c1cc3c(cc1N2CCO)OCCO3 (stereo unspecified)
GI50 [1]: 277 nM | TGI [1]: 7.62 µM | GI50 [2]: 147 nM | TGI [2]: 1840 nM | GI50 [3]: 299 nM | TGI [3]: 11.8 µM | GI50 [4]: 334 nM | TGI [4]: 44.9 µM | GI50 [5]: 583 nM | TGI [5]: 15.5 µM | GI50 [6]: 277 nM | TGI [6]: > 35.5 µM | GI50 [7]: 184 nM | TGI [7]: 16.7 µM | GI50 [8]: 210 nM | TGI [8]: 1140 nM | GI50 [9]: 211 nM | TGI [9]: 6.53 µM | GI50 [10]: 1230 nM | TGI [10]: > 38.6 µM | GI50 [11]: 503 nM | TGI [11]: 4.33 µM | GI50 [12]: 213 nM | TGI [12]: 8.78 µM | GI50 [13]: 245 nM | TGI [13]: > 50 µM | GI50 [14]: 135 nM | TGI [14]: 587 nM | GI50 [15]: 295 nM | TGI [15]: 15.1 µM | GI50 [16]: 236 nM | TGI [16]: 8.2 µM | GI50 [17]: 273 nM | TGI [17]: > 37.6 µM | GI50 [18]: 148 nM | TGI [18]: 502 nM | GI50 [19]: 542 nM | TGI [19]: > 33 µM | GI50 [20]: 211 nM | TGI [20]: > 22.6 µM | GI50 [21]: 172 nM | TGI [21]: 7.58 µM | GI50 [22]: 316 nM | TGI [22]: 10.8 µM | GI50 [23]: 264 nM | TGI [23]: 5.65 µM | GI50 [24]: 249 nM | TGI [24]: 25.8 µM | GI50 [25]: 208 nM | TGI [25]: > 50 µM | GI50 [26]: 833 nM | TGI [26]: 7.59 µM | GI50 [27]: 102 nM | TGI [27]: 468 nM | GI50 [28]: 456 nM | TGI [28]: > 42.3 µM | GI50 [29]: 290 nM | TGI [29]: 7.71 µM | GI50 [30]: 279 nM | TGI [30]: 21.7 µM | GI50 [31]: 192 nM | TGI [31]: 5.77 µM | GI50 [32]: 85.2 nM | TGI [32]: 283 nM | GI50 [33]: 239 nM | TGI [33]: 3000 nM | GI50 [34]: 127 nM | TGI [34]: 351 nM | GI50 [35]: 382 nM | TGI [35]: > 50 µM | GI50 [36]: 736 nM | TGI [36]: > 33.2 µM | GI50 [37]: 389 nM | TGI [37]: 7.24 µM | GI50 [38]: 189 nM | TGI [38]: 8.66 µM | GI50 [39]: 405 nM | TGI [39]: 12.9 µM | GI50 [40]: 116 nM | TGI [40]: 751 nM | GI50 [41]: 261 nM | TGI [41]: 11.6 µM | GI50 [42]: 151 nM | TGI [42]: 2840 nM | GI50 [43]: 177 nM | TGI [43]: 1740 nM | GI50 [44]: 137 nM | TGI [44]: 1110 nM | GI50 [45]: 412 nM | TGI [45]: > 38.6 µM | GI50 [46]: 148 nM | TGI [46]: 6.37 µM | GI50 [47]: 215 nM | TGI [47]: 2320 nM | GI50 [48]: 688 nM | TGI [48]: 20 µM | GI50 [49]: 327 nM | TGI [49]: > 50 µM | GI50 [50]: 128 nM | TGI [50]: 9.2 µM | GI50 [51]: 187 nM | TGI [51]: 21.7 µM | GI50 [52]: 160 nM | TGI [52]: > 50 µM | GI50 [53]: 282 nM | TGI [53]: > 50 µM | GI50 [54]: 513 nM | TGI [54]: 20 µM | GI50 [55]: 206 nM | TGI [55]: 12.7 µM | GI50 [56]: 181 nM | TGI [56]: 19.4 µM | GI50 [57]: 192 nM | TGI [57]: 10.8 µM | GI50 [58]: 256 nM | TGI [58]: 30.6 µM
